Data as given in patent US7528226B2, “TGFβ1-inhibitor peptides” (Rojecto de Biomedicina Cima S.L., priority 1998, dated 2009).
No end group written: not given here.

Experiments:
[1] = test system: type I, II and III cell receptors of TGFβ1; assay: Affinity labelling: inhibition of binding of 125I-TGFβ1 to its cell receptors on MV-1-Lu cells; parameters: species or system human
Description: The MV-1-Lu cells were removed from the culture flasks incubating them at 37° C. for 10 minutes, with 10 ml of solution 1 (128 mM NaCl, 5 mM KCl, 25 mM 4-(2-hydroxyethyl)-1-piperazine ethanesulphonate at pH 7.5, 5 mM glucose and 1 mM EDTA). The cells thus removed were resuspended in solution 2 (128 Mm NaCl, 5 mM KCl, 50 mM 4-(2-hydroxyethyl)-1-piperazine ethanesulphonate at pH 7.5, 1.2 mM CaCl2, 1.2 mM MgSO4 and 5 mg/ml BSA) and were collected by centrifugation at 1000×g for 5 minutes. After centrifugation the cells were resuspended in solution 2 at a concentration of 10^6 cells/ml.
From this cell suspension, 0.5 ml aliquots were made in 24-well plates (Greiner GmbH, Frickenhausen, Germany), the peptides were added, in 50 μl of a 0.8 mg/ml solution, then this was incubated for 2 hours at 4° C. with stirring. Next, ^125I-TGFβ1 (2 μCi) was added to a final concentration of 277.2 pM (^125I-TGFβ1 human recombinant 800-2200 Ci/mmol, Amersham Life Science, Buckinghamshire, UK) and this was incubated for a further two hours at 4° C. with stirring.
After incubation, the cells were transferred to a centrifuge tube and were centrifuged cold at 12,000×g for 1 minute. […]

[2] = test system: experimental cirrhosis with CCl4; assay: Model of experimental cirrhosis induced with CCl4 in Wistar rats (collagen / fibrosis); format: in vivo, rat
Description: Male white rats (albino Wistar strain) from simultaneous litters (5 weeks±1.5 weeks) were used, in order to obtain a group that was homogeneous in age and initial weight. Throughout the experiments, the animals were kept in conditions of constant temperature (22° C.) with a 12-hour cycle of light and darkness. They had free access to water and food.
Hepatic cirrhosis (HC) was induced by inhalation of carbon tetrachloride for 11 weeks, twice per week (López Novoa J M et al. (1976) Patologia IX:223-240; Camps J. et al. (1987) Gastroenterology 93:498-505). Exposure to CCl4 was effected by bubbling compressed air, at a flow rate of 3 liters/min, through a gas wash-bottle. […] CCl4 was not administered during the fifth week, starting again at the sixth week with an exposure of 5 minutes. This exposure time was maintained until week 11. 400 mg/l of phenobarbital (Luminal®, Bayer, Leverkusen, Germany) was added to the drinking water, from one week before starting exposure to CCl4 and until the end of the experimental period. Before starting the treatment, one week was left, in which they were not administered CCl4. During treatment they were administered a weekly dose of CCl4, as recorded (FIG. 2).
The animals were divided into 4 groups before beginning the process of induction of hepatic cirrhosis. • Healthy controls (Co): Animals that were not subjected to the fibrosis process. • Treated healthy controls (Co+P144): Animals that were not subjected to the fibrosis process and that were administered the peptide P144 during the last 3 weeks (coinciding in time with the treatment of the group of rats Tto2). • Cirrhotic controls 1 (Ci1): Animals subjected to the process of induction of cirrhosis by inhalation of CCl4 twice per week. These animals were separated into 2 groups on reaching the fifth week: • Cirrhotic controls 1 (Ci1): Animals that continued to be subjected to the process of induction of fibrosis up to week 11, without being administered the peptide P144. They were administered saline serum on alternate days, throughout the induction process (weeks 5 to 11). • Treated cirrhotics 1 (Tto1): Animals that were administered the peptide P144 derived from the sequence of the type III receptor, on alternate days, during the process of induction of fibrosis, from week 5 to week 11. • Cirrhotic controls 2 (Ci2): Animals that continued to be subjected to the process of induction of fibrosis without receiving the peptide P144 or saline serum. This group was subdivided into another two on reaching week 11. • Cirrhotic controls 2 (Ci2): Cirrhotic animals that were not subjected to any type of treatment, kept as controls. […]

Sequence: TSLDASIIWAMMQN [P144, ThrSerLeuAspAlaSerIleIleTrpAlaMetMetGlnAsn]
- inhibition of the binding of 125I-TGFβ1 to the cell receptors ([1]; preincubation with peptide at 10^6 times the molar concentration of 125I-TGFβ1): inhibition of the binding
- concentration at which the peptide lost its activity ([1]; titration of the peptide, affinity labelling): 2×10^5 times the molar concentration of ^125I-TGFβ1
- ratio of collagen to total protein, treated (Tto1) vs cirrhotic controls (Ci1) ([2]; protocol 1: 70 μg/animal on alternate days during cirrhosis induction, Fast Green/Direct Red, spectrophotometer): significant differences are observed (P<0.05)
- area of fibrosis, treated (Tto1) vs cirrhotic controls (Ci1) ([2]; protocol 1: 70 μg/animal on alternate days during cirrhosis induction, image analysis, Sirius Red): also significant (P<0.001)
- ratio of collagen to total protein, treated (Tto2) vs cirrhotic controls (Ci2) ([2]; protocol 2: 70 μg/animal on alternate days for 3 weeks once cirrhosis was established): not significant
- area of fibrosis, treated (Tto2) vs cirrhotic controls (Ci2) ([2]; protocol 2: 70 μg/animal on alternate days for 3 weeks once cirrhosis was established, image analysis): not significant
